Laboratory results reported in paper PMC11007962, “First-in-human study of GFH018, a small molecule inhibitor of transforming growth factor-β receptor I inhibitor, in patients with advanced solid tumors” (BMC Cancer, 2024).
Where two headings read alike, the source gives them in different places.

Test system: patients with advanced solid tumors
[1] = 5 mg BID 14d-on/14d-off (N = 4)
[2] = 10 mg BID 14d-on/14d-off (N = 3)
[3] = 20 mg BID 14d-on/14d-off (N = 4)
[4] = 30 mg BID 14d-on/14d-off (N = 7)

Procedure: The study consisted of a dose-escalation part followed by an expansion part. In the dose escalation part, a 3-day pharmacokinetic (PK) lead-in period was conducted for a single dose in the first treatment cycle. Patients received GFH018 once on cycle 1 day 1 (C1D1) and underwent serial PK testing over the first 3 days. On C1D4, patients were administered the corresponding dose of GFH018 BID 14 days on/14 days off. The first cycle was defined as 31 days, including 3-day PK leading-in period with GFH018 single dosing and then 14d-on/14d-off dosing schedule. The subsequent cycles were 28 days. The starting dose of GFH018 was 5 mg, with eight planned dose levels up to 85 mg (5, 10, 20, 30, 40, 50, 65, and 85 mg). A modified 3+3 design was used to determine the maximum tolerance dose (MTD) and RDE, guided by safety/tolerability and PK data. Dose-limiting toxicities (DLTs) were evaluated during the first cycle at each dose level. The safety of 85 mg BID, 7 d-on/7 d-off, was explored after confirming the safety of 14 d-on/14 d-off. The DLTs were defined as hematological toxicities, including G4 neutropenia lasting for more than 5 days, G3 febrile neutropenia, G4 anemia, G4 thrombocytopenia, or G3 thrombocytopenia accompanied by bleeding, and ≥ G3 nonhematological toxicity (except for diarrhea, nausea, vomiting, and rash recovering ≤ G2 after supportive treatment within 3 days). The DLTs for cardiac toxicities included ≥ G2 cardiac valve abnormalities, ≥ G2 left ventricular ejection fraction (LVEF) decrease, any cardiovascular impairment shown in imaging, and abnormal highly sensitive troponin (hs-Tn) increased to ≥ twice the baseline in two consecutive tests with an interval ≥ 3 days. In the expansion part, patients were orally administered GFH018 RDE twice daily to further evaluate the safety of RDE and other dose regimens. […] The treatment cycle lasted 28 days.
All enrolled patients were monitored regularly after GFH018 administration. Safety assessments included adverse events (AEs), serious AEs (SAEs), laboratory assessments, vital signs, physical examinations, electrocardiography and echocardiography. AEs were graded according to the NCI Common Terminology Criteria for Adverse Events (NCI-CTCAE) v5.0. All AEs were followed up until they were stable or had recovered to baseline. Adverse events of special interest (AESIs) were predefined as echocardiographic abnormalities such as aggravated stenosis or regurgitation of the heart valves, clinically significant decreases in LVEF, brain natriuretic peptide (BNP) or N-terminal pro-brain natriuretic peptide (NT-proBNP) increases, and hs-Tn increases judged by investigators.
For the safety and efficacy analyses, data from patients who received GFH018 at the same dose in the dose-escalation and expansion cohorts were pooled. The demographic and baseline characteristics were summarized using descriptive methods. Safety and efficacy data were summarized for all patients who received at least one dose of GFH018. The ORR and DCR were summarized by cohort and overall. When the sample size of the analyzed group was ten or more, the Kaplan–Meier method was used to estimate the median PFS and TTP. In this study, treatment-emergent AEs (TEAEs) were defined as AEs that occurred on or after the first dosing date of GFH018 and no later than 30 days after the last dose of GFH018. The incidence and severity of AEs were descriptively summarized according to dose level. The PK parameters of GFH018 were calculated using noncompartmental analysis methods. All plasma PK data were summarized by cohort and visit day or time using descriptive statistics.

Cc1cccc(-c2nn3c(c2-c2ccc4ncnn4c2/C=C/C(N)=O)CCC3)n1 [GFH018]
3 (42.9%) n (%): TEAE: AST increased [4] | TEAE: Anemia [4] | TEAE: Blood bilirubin increased [4] | TEAE: Hypoalbuminemia [4] | TEAE: LDH increased [4]
3 (75.0) n (%): Treatment-emergent Proteinuria (grouped PTs: proteinuria and urine protein present), any grade [1] | Treatment-emergent Proteinuria (grouped PTs), G1 [3]
3 (100%) n (%): At least one TEAE [2] | At least one TRAE [2]
2 (50.0%) n (%): TEAE: Blood albumin decreased [1] | TEAE: C-reactive protein increased [1] | TEAE: Sinus tachycardia [1] | TEAE: Urine protein present [1] | TEAE: Asthenia [3] | TEAE: Proteinuria [3] | TEAE: Urine protein present [3] | TRAE: Proteinuria [3]
2 (66.7%) n (%): TEAE: GGT increased [2] | TEAE: Urine protein present [2] | TRAE: GGT increased [2]
4 (100.0) n (%): Treatment-emergent Proteinuria (grouped PTs: proteinuria and urine protein present), any grade [3]
2 (28.6%) n (%): TEAE: ALT increased [4] | TEAE: Abdominal distention [4] | TEAE: Abdominal pain [4] | TEAE: Asthenia [4] | TEAE: Bilirubin conjugated increased [4]
0 n (%): TEAE: ALP increased [1] | TEAE: ALT increased [1] | TEAE: AST increased [1] | TEAE: Abdominal distention [1] | TEAE: Abdominal pain [1] | TEAE: Anemia [1] | TEAE: Asthenia [1] | TEAE: Blood bilirubin increased [1] | TEAE: Constipation [1] | TEAE: Hypoalbuminemia [1] | TEAE: White blood cells urine positive [1] | TRAE: ALP increased [1] | TRAE: ALT increased [1] | TRAE: AST increased [1] | TRAE: Anemia [1] | TRAE: GGT increased [1] | TRAE: LDH increased [1] | TRAE: Proteinuria [1] | Treatment-emergent Proteinuria (grouped PTs), G3 [1] | TEAE: AST increased [2] | TEAE: Abdominal distention [2] | TEAE: Abdominal pain [2] | TEAE: Bilirubin conjugated increased [2] | TEAE: Blood bilirubin increased [2] | TEAE: C-reactive protein increased [2] | TEAE: Decreased appetite [2] | TEAE: Hypoalbuminemia [2] | TEAE: Lymphocyte count decreased [2] | TEAE: Platelet count decreased [2] | TEAE: Proteinuria [2] | TEAE: Sinus tachycardia [2] | TEAE: White blood cell count decreased [2] | TEAE: White blood cells urine positive [2] | TRAE: AST increased [2] | TRAE: Lymphocyte count decreased [2] | TRAE: Proteinuria [2] | Treatment-emergent Proteinuria (grouped PTs), G1 [2] | Treatment-emergent Proteinuria (grouped PTs), G3 [2] | TEAE: AST increased [3] | TEAE: Abdominal pain [3] | TEAE: C-reactive protein increased [3] | TEAE: Constipation [3] | TEAE: Decreased appetite [3] | TEAE: GGT increased [3] | TEAE: Hypoalbuminemia [3] | TEAE: LDH increased [3] | TEAE: Lymphocyte count decreased [3] | TEAE: Platelet count decreased [3] | TEAE: Sinus tachycardia [3] | TRAE: ALP increased [3] | TRAE: ALT increased [3] | TRAE: AST increased [3] | TRAE: Anemia [3] | TRAE: GGT increased [3] | TRAE: LDH increased [3] | TRAE: Lymphocyte count decreased [3] | Treatment-emergent Proteinuria (grouped PTs), G3 [3] | TEAE: Blood albumin decreased [4] | TEAE: C-reactive protein increased [4]
4 (57.1%) n (%): TEAE: Constipation [4] | TEAE: Proteinuria [4]
1 (33.3%) n (%): TEAE: ALP increased [2] | TEAE: ALT increased [2] | TEAE: Anemia [2] | TEAE: Asthenia [2] | TEAE: Blood albumin decreased [2] | TEAE: Constipation [2] | TEAE: LDH increased [2] | TRAE: ALP increased [2] | TRAE: ALT increased [2] | TRAE: Anemia [2] | TRAE: LDH increased [2] | TRAE: Protein urine present [2]
1 (25.0) n (%): Treatment-emergent Proteinuria (grouped PTs), G1 [1] | Treatment-emergent Proteinuria (grouped PTs), G2 [3]
7 (100%) n (%): At least one TEAE [4] | At least one TRAE [4]
2 (66.7) n (%): Treatment-emergent Proteinuria (grouped PTs), G2 [2] | Treatment-emergent Proteinuria (grouped PTs: proteinuria and urine protein present), any grade [2]
4 (100%) n (%): At least one TEAE [1] | At least one TRAE [1] | TEAE: Lymphocyte count decreased [1] | At least one TEAE [3] | At least one TRAE [3]
1 (25.0%) n (%): TEAE: Bilirubin conjugated increased [1] | TEAE: Decreased appetite [1] | TEAE: GGT increased [1] | TEAE: LDH increased [1] | TEAE: Platelet count decreased [1] | TEAE: Proteinuria [1] | TEAE: White blood cell count decreased [1] | TRAE: Lymphocyte count decreased [1] | TRAE: Protein urine present [1] | TEAE: ALP increased [3] | TEAE: ALT increased [3] | TEAE: Abdominal distention [3] | TEAE: Anemia [3] | TEAE: Bilirubin conjugated increased [3] | TEAE: Blood albumin decreased [3] | TEAE: Blood bilirubin increased [3] | TEAE: White blood cell count decreased [3] | TEAE: White blood cells urine positive [3] | TRAE: Protein urine present [3]
2 (50.0) n (%): Treatment-emergent Proteinuria (grouped PTs), G2 [1]
1 (14.3%) n (%): TEAE: ALP increased [4] | TEAE: Decreased appetite [4] | TEAE: GGT increased [4] | TEAE: Lymphocyte count decreased [4] | TEAE: Platelet count decreased [4] | TEAE: Sinus tachycardia [4]
